Reference: patent publication US9505749B2, “Quinazolinone compounds and derivatives thereof” (AMGEN INC., priority 2012, dated 2016)
Where two headings read alike, the source gives them in different places.

Experiments:
[1] = tested on: total β-catenin in SW480 colorectal cells; test: Total β-catenin MSD 96-well plate assay for SW480 cells; settings: Homo sapiens, SW480, read-out: SW480-Total beta-catenin (TBC) IC50 IP
[2] = tested on: Axin2 accumulation in SW480 cells; test: Axin2 384 immunofluorescence assay; format: cell-based; settings: Homo sapiens, read-out: Axin2 384 IF EC50

Row | Structure (SMILES) | IC50 [1] | EC50 ([2]; SW480 cells, 24 hours) | EC50 ([2]; SW480, 24 h)
1 | O=C(CCc1nc2ccccc2c(=O)[nH]1)N[C@H]1CC[C@H](n2c(=O)oc3ccccc32)CC1 [Example 80] | 0.0423 µM | 0.225 µM | 
2 | O=C(CCCc1nc2ccccc2c(=O)[nH]1)N[C@H]1CC[C@H](n2c(=O)[nH]c3ccccc32)CC1 [Example 73, N-((1r,4r)-4-(2-oxo-2,3-dihydro-1H-benzo[d]imidazol-1-yl)cyclohexyl)-4-(4-oxo-3,4-dihydroquinazolin-2-yl)butanamide trifluoroacetic acid] | 0.021 µM |  | 0.0296 µM
3 | O=C(CCc1cc(=O)n2ccccc2n1)N[C@H]1CC[C@H](c2nnc(-c3ccccc3)o2)CC1 [Example 38, 3-(4-oxo-4H-pyrido[1,2-a]pyrimidin-2-yl)-N-((1r,4r)-4-(5-phenyl-1,3,4-oxadiazol-2-yl)cyclohexyl) propanamide] | 1.43 µM | 8.19 µM | 
4 | O=C(CCSc1nc2ccccc2c(=O)[nH]1)N[C@H]1CC[C@H](c2nnc(-c3ccncc3)o2)CC1 [Example 124, 3-((4-oxo-3,4-dihydroquinazolin-2-yl)thio)-N-(trans-4-(5-(pyridin-4-yl)-1,3,4-oxadiazol-2-yl)cyclohexyl)propanamide] | 0.00192 µM | 0.000666 µM | 
5 | O=C(CCc1nc2ccccc2c(=O)[nH]1)N[C@H]1CC[C@H](c2nnc(C3CCOCC3)o2)CC1 [Example 135, 3-(4-oxo-3,4-dihydroquinazolin-2-yl)-N-((1r,4r)-4-(5-(tetrahydro-2H-pyran-4-yl)-1,3,4-oxadiazol-2-yl)cyclohexyl)propanamide] | > 10 µM |  | 
6 | O=C(CSc1nc2ccccc2c(=O)[nH]1)N[C@H]1CC[C@H](Oc2ccc(F)cc2)CC1 [Example 99, N-((1r,4r)-4-(4-fluorophenoxy)cyclohexyl)-2-((4-oxo-3,4-dihydroquinazolin-2-yl)thio) acetamide] | 2.42 µM | 2.16 µM | 

Continued, in another order:

Row | IC50 [1] | EC50 ([2]; SW480 cells, 24 hours) | Structure (SMILES) | EC50 ([2]; SW480, 24 h)
7 | 1.13 µM | 0.63 µM | O=C(CCCc1nc2ccccc2c(=O)[nH]1)N1CCC(c2noc3ccc(F)cc23)CC1 [Example 72, 2-(4-(4-(5-fluorobenzo[d]isoxazol-3-yl)piperidin-1-yl)-4-oxobutyl)quinazolin-4(3H)-one trifluoroacetic acid] | 
8 | 3.44 µM | 4.17 µM | O=C(CCCc1nc2ccccc2c(=O)[nH]1)N1CCN(c2noc3ccccc23)CC1 [Example 71, 2-(4-(4-(benzo[d]isoxazol-3-yl)piperazin-1-yl)-4-oxobutyl)quinazolin-4(3H)-one trifluoroacetic acid] | 
9 | 0.0454 µM | 0.0818 µM | COc1ccc2c(c1)[nH]c(=O)n2C1CCN(C(=O)CCCc2nc3ccccc3c(=O)[nH]2)CC1 [Example 8, 2-(4-(4-(5-methoxy-2-oxo-2,3-dihydro-1H-benzimidazol-1-yl)-1-piperidinyl)-4-oxobutyl)-4(3H)-quinazolinone] | 
10 | > 10 µM |  | O=C(CCCc1nc2ccccc2c(=O)[nH]1)N[C@H]1CC[C@H](Oc2ccccc2)C1 [Example 65, 4-(4-oxo-3,4-dihydroquinazolin-2-yl)-N-((1S,3S)-3-phenoxycyclopentyl)butanamide+4-(4-oxo-3,4-dihydroquinazolin-2-yl)-N-((1R,3R)-3-phenoxycyclopentyl)butanamide] | 
11 | 0.0167 µM | 0.0739 µM | O=C(CCCc1nc2ccccc2c(=O)[nH]1)N[C@H]1CC[C@H](c2nnc(-c3ccccc3)o2)CC1 [Example 10, 4-(4-oxo-3,4-dihydro-2-quinazolinyl)-N-(trans-4-(5-phenyl-1,3,4-oxadiazol-2-yl)cyclohexyl)butanamide] | 
12 | 0.623 µM | 0.383 µM | O=C(CCCc1nc2ccccc2c(=O)[nH]1)N1CCC(n2nnc3ccccc32)CC1 [Example 75, 2-(4-(4-(1H-benzo[d][1,2,3]triazol-1-yl)piperidin-1-yl)-4-oxobutyl)quinazolin-4(3H)-one trifluoroacetic acid] | 
